Reference: US20260297092A1, “PYRAZOLOPYRIMIDINE DERIVATIVES AS INHIBITORS OF NLRP3” (Takeda Pharmaceutical Company Limited, priority 2023, published 2026)

What was measured:
[1] = tested on: TNF-α (NF-κB pathway, THP-1 cells); assay: TNF-α Assay (IC50); assay type: cell-based, human; settings: Homo sapiens, 600 ng/mL LPS, 3 hours
Description: TNF-α Assay (Reported as IC50)
Monocytic THP-1 cells (ATCC: TIB-202) were maintained in accordance with the provider's instructions in RPMI media (Life Technologies, Cat #A10491-01); RPMI was supplemented with 10% heat inactivated fetal bovine serum (Hyclone Cat #SH30396.03). The cells were differentiated into macrophages by the addition of 25 ng/mL IFN-7 for 24 hours at 37° C./5% CO2. Media was exchanged with fresh media with no FBS. The cells were plated at 40,000 cells per well in 384-well flat-bottom cell culture plates (Costar 3764) containing compounds (added in 1:1000) in a 1:3.16 serial dilution series in DMSO and were incubated for 30 minutes at 37° C./5% CO2. The NF-κB pathway was activated with the addition of 600 ng/mL LPS and the cells were incubated for 3 hours at 37° C./5% CO2. At the end of the incubation period, supernatant ([…]) was removed, and TNF-alpha were monitored using an ELISA (Human TNF-α ELISA, R&D systems, Cat #DY210) according to the manufacturer's instructions. 100% inhibition is determined with positive control, TPCA-1.
The IC50 values in the TNF-α assay were calculated from a plot of percentage of inhibition versus the inhibitor concentration by a logistics curve fit according to: Y=[Bottom+(Top−Bottom)]/(1+10^[(Log IC50−X)·Hill Slope], where Y was the […] at the inhibitor concentration, X, “Bottom” was the lowest inhibition value, i.e., 0%, “Top” was the maximum inhibition value, i.e., 100%, and the “Hill Slope” described the slope of the sigmoidal curve between the “Bottom” and “Top” values. The curve fitting was conducted with internally developed software.

[2] = tested on: NLRP3 inflammasome (IL-1β production in THP-1 cells); assay: IL-1β TR-FRET Assay (percentage of inhibition at 300 nM, 6 μM or 10 μM); assay type: cell-based, human; settings: Homo sapiens, LPS priming, ATP activation; for inhibition at 6 µM: THP-1, 6 μM, read-out: IL-1β inhibitory rate at 6 μM (%); for inhibition at 0.3 µM: THP-1, 300 nM, read-out: IL-1β inhibitory rate at 300 nM (%)
Method in brief: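 THP-1 cells were differentiated with 25 ng/mL IFN-γ for 24 h, primed with 50 ng/mL LPS in serum-free medium for 24 h, then given compound for 30 min before 20 mM ATP for 2 h. Supernatant IL-1β was measured by HTRF after 16-24 h at room temperature. Inhibition was normalized between DMSO (high) and 3 μM MCC-950 (low).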

| IC50 [1] [µM] | SMILES | inhibition at 6 µM [2] [%] | inhibition at 0.3 µM [2] [%] | inhibition at 10 µM ([2]; THP-1, 10 μM, read-out: IL-1β inhibitory rate at 10 μM (%)) [%] |
| --- | --- | --- | --- | --- |
| > 30 | CCOc1nc2nn(-c3ccc(C4CC4)cn3)cc2c(=O)[nH]1 [Example 130, 2-(5-cyclopropylpyridin-2-yl)-6-ethoxy-2,5-dihydro-4H-pyrazolo[3,4-d]pyrimidin-4-one] |  |  | 37 |
| > 30 | COc1nc2nn(-c3c(C)cc(OC(F)F)cc3C(F)F)cc2c(=O)[nH]1 [Example 284, 2-[4-(difluoromethoxy)-2-(difluoromethyl)-6-methylphenyl]-6-methoxy-2,5-dihydro-4H-pyrazolo[3,4-d]pyrimidin-4-one] | 103 |  |  |
| > 30 | CCOc1nc2nn(-c3ccc(C(C)C)cc3O)c(C)c2c(=O)[nH]1 [Example 44, 6-ethoxy-2-[2-hydroxy-4-(propan-2-yl)phenyl]-3-methyl-2,5-dihydro-4H-pyrazolo[3,4-d]pyrimidin-4-one] |  | 101 |  |
| > 30 | CCOc1nc2nn(-c3c(C)cc(OC(F)F)cc3F)cc2c(=O)[nH]1 [Example 109] |  | 99 |  |
| > 30 | Cc1cc(C2CC2)cc(C)c1-n1cc2c(=O)[nH]c([C@H]3CC3(F)F)nc2n1 [Example 191, 2-(4-cyclopropyl-2,6-dimethylphenyl)-6-(2,2-difluorocyclopropyl)-2,5-dihydro-4H-pyrazolo[3,4-d]pyrimidin-4-one] |  | 109 |  |
| 2.26 | Cc1cc(-c2nc3nn(-c4c(C)cc(C5CC5)cc4C)cc3c(=O)[nH]2)on1 [Example 275, 2-(4-cyclopropyl-2,6-dimethylphenyl)-6-(3-methyl-1,2-oxazol-5-yl)-2,5-dihydro-4H-pyrazolo[3,4-d]pyrimidin-4-one] | 101 |  |  |
| > 30 | CCOc1nc2nn(-c3c(C)cc(OC(F)(F)F)cc3F)cc2c(=O)[nH]1 [Example 125, 6-ethoxy-2-[2-fluoro-6-methyl-4-(trifluoromethoxy)phenyl]-2,5-dihydro-4H-pyrazolo[3,4-d]pyrimidin-4-one] |  | 100 |  |
| > 30 | CCOc1nc2nn(-c3c(C)cc(OC(F)F)cc3CC(F)(F)F)cc2c(=O)[nH]1 [Example 168, 2-[4-(difluoromethoxy)-2-methyl-6-(2,2,2-trifluoroethyl)phenyl]-6-ethoxy-2,5-dihydro-4H-pyrazolo[3,4-d]pyrimidin-4-one] |  | 98 |  |
| > 30 | Cc1cc(C2CC2)cc(C(F)F)c1-n1cc2c(=O)[nH]c(C3(F)CC3)nc2n1 [Example 319, 2-[4-cyclopropyl-2-(difluoromethyl)-6-methylphenyl]-6-(1-fluorocyclopropyl)-2,5-dihydro-4H-pyrazolo[3,4-d]pyrimidin-4-one] | 100 |  |  |
| > 30 | CCOc1nc2nn(-c3ccc(CC)cc3O)c(C)c2c(=O)[nH]1 [Example 49, 6-ethoxy-2-(4-ethyl-2-hydroxyphenyl)-3-methyl-2,5-dihydro-4H-pyrazolo[3,4-d]pyrimidin-4-one] |  | 98 |  |
| > 30 | CO[C@H]1COCC[C@@H]1c1nc2nn(-c3c(C)cc(C4CC4)cc3C)cc2c(=O)[nH]1 (racemic) [Example 311, racemic mixture of 1,5-anhydro-3-[2-(4-cyclopropyl-2,6-dimethylphenyl)-4-oxo-4,5-dihydro-2H-pyrazolo[3,4-d]pyrimidin-6-yl]-2,3-dideoxy-4-O-methyl-L-threo-pentitol and 1,5-anhydro-3-[2-(4-cyclopropyl-2,6-dimethylphenyl)-4-oxo-4,5-dihydro-2H-pyrazolo[3,4-d]pyrimidin-6-yl]-2,3-dideoxy-4-O-methyl-D-threo-pentitol] | 102 |  |  |

The remaining lines, values behind:

| SMILES | IC50 [1] [µM] | inhibition at 6 µM [2] [%] | inhibition at 0.3 µM [2] [%] | inhibition at 10 µM ([2]; THP-1, 10 μM, read-out: IL-1β inhibitory rate at 10 μM (%)) [%] |
| --- | --- | --- | --- | --- |
| Cc1cc(C2CC2)cc(C)c1-n1cc2c(=O)[nH]c(-c3ccn(C)n3)nc2n1 [Example 297, 2-(4-cyclopropyl-2,6-dimethylphenyl)-6-(1-methyl-1H-pyrazol-3-yl)-2,5-dihydro-4H-pyrazolo[3,4-d]pyrimidin-4-one] | > 30 | 90 |  |  |
| CCOc1cc(C)c(-n2cc3c(=O)[nH]c(OCC)nc3n2)c(F)c1 [Example 160, 6-ethoxy-2-(4-ethoxy-2-fluoro-6-methylphenyl)-2,5-dihydro-4H-pyrazolo[3,4-d]pyrimidin-4-one] | > 30 |  | 84 |  |
| CCOc1nc2nn(-c3c(C)cc(OC(F)F)cc3C(F)F)cc2c(=O)[nH]1 [Example 195, 2-[4-(difluoromethoxy)-2-(difluoromethyl)-6-methylphenyl]-6-ethoxy-2,5-dihydro-4H-pyrazolo[3,4-d]pyrimidin-4-one] | > 30 |  | 101 |  |
| Cc1cc(C)c(-n2cc3c(=O)[nH]c(OCCN(C)C)nc3n2)c(O)c1 [Example 50, 6-[2-(dimethylamino)ethoxy]-2-(2-hydroxy-4,6-dimethylphenyl)-2,5-dihydro-4H-pyrazolo[3,4-d]pyrimidin-4-one] | > 30 |  | 101 |  |
| Cc1cc(C)c(-n2cc3c(=O)[nH]c(OCCCN(C)C)nc3n2)c(O)c1 [Example 115, 6-[3-(dimethylamino)propoxy]-2-(2-hydroxy-4,6-dimethylphenyl)-2,5-dihydro-4H-pyrazolo[3,4-d]pyrimidin-4-one] | > 30 |  | 99 |  |
| CCOc1nc2nn(-c3c(F)cc(OC)cc3CC(F)(F)F)cc2c(=O)[nH]1 [Example 162, 6-ethoxy-2-[2-fluoro-4-methoxy-6-(2,2,2-trifluoroethyl)phenyl]-2,5-dihydro-4H-pyrazolo[3,4-d]pyrimidin-4-one] | > 30 |  | 97 |  |
| Cc1ccc(-n2cc3c(=O)[nH]c(OC4CCC4)nc3n2)c(C)c1 [Example 87, 6-(cyclobutyloxy)-2-(2,4-dimethylphenyl)-2,5-dihydro-4H-pyrazolo[3,4-d]pyrimidin-4-one] | > 30 |  | 97 |  |
| CCOc1nc2nn(-c3ccc(C4CC4)cc3O)c(C)c2c(=O)[nH]1 [Example 48, 2-(4-cyclopropyl-2-hydroxyphenyl)-6-ethoxy-3-methyl-2,5-dihydro-4H-pyrazolo[3,4-d]pyrimidin-4-one] | > 30 |  | 100 |  |
| CCOc1nc2nn(-c3c(C)cc(OC)cc3F)cc2c(=O)[nH]1 [Example 121, 6-ethoxy-2-(2-fluoro-4-methoxy-6-methylphenyl)-2,5-dihydro-4H-pyrazolo[3,4-d]pyrimidin-4-one] | > 30 |  | 97 |  |
| Cc1cc(C)c(-n2cc3c(=O)[nH]c(C(C)(C)C)nc3n2)c(O)c1 [Example 71, 6-tert-butyl-2-(2-hydroxy-4,6-dimethylphenyl)-2,5-dihydro-4H-pyrazolo[3,4-d]pyrimidin-4-one] | 1.69 |  | 96 |  |
| CO[C@@H]1C[C@H]1c1nc2nn(-c3c(C)cc(C4CC4)cc3C)cc2c(=O)[nH]1 (racemic) [Example 265, racemic mixture of 2-(4-cyclopropyl-2,6-dimethylphenyl)-6-[(1R,2S)-2-methoxycyclopropyl]-2,5-dihydro-4H-pyrazolo[3,4-d]pyrimidin-4-one and 2-(4-cyclopropyl-2,6-dimethylphenyl)-6-[(1S,2R)-2-methoxycyclopropyl]-2,5-dihydro-4H-pyrazolo[3,4-d]pyrimidin-4-one] | > 30 | 95 |  |  |
| CCOc1nc2nn(-c3c(F)cc(C)cc3OC)cc2c(=O)[nH]1 [Example 93, 6-ethoxy-2-(2-fluoro-6-methoxy-4-methylphenyl)-2,5-dihydro-4H-pyrazolo[3,4-d]pyrimidin-4-one] | > 30 |  | 80 |  |
| CCOc1nc2nn(-c3c(C)cc(C)cc3O)c(Cl)c2c(=O)[nH]1 [Example 26, 3-chloro-6-ethoxy-2-(2-hydroxy-4,6-dimethylphenyl)-2,5-dihydro-4H-pyrazolo[3,4-d]pyrimidin-4-one] | > 30 |  | 94 |  |
| Cc1cc(C2CC2)cc(C)c1-n1cc2c(=O)[nH]c(C3CC(F)(F)C3)nc2n1 [Example 262, 2-(4-cyclopropyl-2,6-dimethylphenyl)-6-(3,3-difluorocyclobutyl)-2,5-dihydro-4H-pyrazolo[3,4-d]pyrimidin-4-one] | > 30 | 100 |  |  |
